Our source for the Ki values is ChEMBL document CHEMBL2073820, “Rifamycin SV and rifampicin exhibit differential inhibition of the hepatic rat organic anion transporting polypeptides, Oatp1 and Oatp2” (Hepatology, 2000).

Assay [1] addresses T1, Solute carrier organic anion transporter family member 1A1 (Rattus norvegicus, UniProt P46720).
T1 sequence (P46720 whole entry): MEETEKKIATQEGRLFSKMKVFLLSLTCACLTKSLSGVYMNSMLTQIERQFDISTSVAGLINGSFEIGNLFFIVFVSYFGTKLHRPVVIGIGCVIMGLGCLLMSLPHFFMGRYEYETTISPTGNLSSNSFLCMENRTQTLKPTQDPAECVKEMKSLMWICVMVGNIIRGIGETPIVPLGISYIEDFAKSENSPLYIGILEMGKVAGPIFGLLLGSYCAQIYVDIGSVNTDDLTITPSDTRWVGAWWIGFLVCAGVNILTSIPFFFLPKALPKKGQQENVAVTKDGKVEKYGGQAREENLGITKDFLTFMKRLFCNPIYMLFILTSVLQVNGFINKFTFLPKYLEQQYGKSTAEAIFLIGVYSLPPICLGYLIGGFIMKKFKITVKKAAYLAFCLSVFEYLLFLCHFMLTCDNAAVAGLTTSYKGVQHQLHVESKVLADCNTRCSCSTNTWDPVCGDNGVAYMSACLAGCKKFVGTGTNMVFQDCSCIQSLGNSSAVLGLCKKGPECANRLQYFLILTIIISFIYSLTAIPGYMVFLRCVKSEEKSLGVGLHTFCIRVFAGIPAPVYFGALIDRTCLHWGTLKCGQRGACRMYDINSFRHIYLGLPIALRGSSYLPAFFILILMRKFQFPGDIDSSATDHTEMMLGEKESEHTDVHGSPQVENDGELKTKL
Kind of assay: (§1) TP_TRANSPORTER: inhibition of E217betaG uptake in Xenopus laevis oocytes. Type of assay: functional, cell-based, Oocyte.

Assay [2] has as its target T2, Solute carrier organic anion transporter family member 1A4 (Rattus norvegicus, UniProt O35913).
T2 sequence (O35913 whole entry): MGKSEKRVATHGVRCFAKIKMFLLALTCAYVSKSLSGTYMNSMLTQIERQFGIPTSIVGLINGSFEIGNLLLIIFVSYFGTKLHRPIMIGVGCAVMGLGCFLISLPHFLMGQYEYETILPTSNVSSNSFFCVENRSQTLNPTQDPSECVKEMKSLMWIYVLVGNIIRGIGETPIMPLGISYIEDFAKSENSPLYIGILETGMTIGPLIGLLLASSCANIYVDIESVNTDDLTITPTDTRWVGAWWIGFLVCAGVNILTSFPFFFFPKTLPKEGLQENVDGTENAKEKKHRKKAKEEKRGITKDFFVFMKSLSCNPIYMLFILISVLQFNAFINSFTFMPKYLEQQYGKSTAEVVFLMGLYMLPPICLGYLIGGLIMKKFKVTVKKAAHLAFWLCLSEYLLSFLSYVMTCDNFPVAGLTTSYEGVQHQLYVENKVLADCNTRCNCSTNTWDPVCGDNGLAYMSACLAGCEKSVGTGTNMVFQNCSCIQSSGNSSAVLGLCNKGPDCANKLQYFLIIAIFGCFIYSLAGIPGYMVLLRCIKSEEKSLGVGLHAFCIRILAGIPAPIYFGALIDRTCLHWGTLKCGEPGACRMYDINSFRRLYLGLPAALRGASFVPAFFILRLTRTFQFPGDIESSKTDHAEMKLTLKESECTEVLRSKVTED
The description is as §1. The class given is functional, cell-based, Oocyte.

Molecules are shown by their SMILES.

Consider `CO[C@H]1/C=C/O[C@@]2(C)Oc3c(C)c(O)c4c(O)c(cc(O)c4c3C2=O)NC(=O)/C(C)=C\C=C\[C@H](C)[C@H](O)[C@@H](C)[C@@H](O)[C@@H](C)[C@H](OC(C)=O)[C@@H]1C` [RIFAMYCIN], for which the Ki in assay [1] was 6.6 µM; in assay [2] it was 7.3 µM. In turn, `CO[C@H]1/C=C/O[C@@]2(C)Oc3c(C)c(O)c4c(O)c(c(/C=N/N5CCN(C)CC5)c(O)c4c3C2=O)NC(=O)/C(C)=C\C=C\[C@H](C)[C@H](O)[C@@H](C)[C@@H](O)[C@@H](C)[C@H](OC(C)=O)[C@@H]1C` [RIFAMPIN] showed an inhibition constant Ki in assay [2] of 1.4 µM.

What is called Ki is a measure of affinity in units of concentration, obtained from inhibition or displacement. Read a low Ki as higher affinity.
